Drawing on US6472404B1 (priority 2000, dated 2002), this text covers melting point and IC50 for 18 compounds.

One series relates to HIV-HXB2. Briefly: Antiviral assay: protection of HIV-infected MT4 cells from cell death (MTT). Format: cell-based. To be noted: Human immunodeficiency virus 1, 120 h; MT4 cells infected with HIV-HXB2; 5 days; MTT viability; rounded to nearest whole number. The protocol: Methods 20: 309-321]. The method is based on the ability of compounds to protect HIV-infected T lymphoblastoid cells (MT4 cells) from cell-death mediated by the infection. The endpoint of the assay was calculated as the concentration of compound at which the cell viability of the culture was preserved by 50% (‘50% inhibitory concentration’, IC50). The cell viability of a culture was determined by the uptake of soluble, yellow 3-[4,5-dimethylthiazol-2-yl]-2,5-diphenyltetrazolium bromide (MTT) and its reduction to a purple insoluble formazan salt. After solubilization, spectrophotometric methods were employed to measure the amount of formazan product.
MT4 cells were prepared to be in logarithmic-phase growth and a total of 2×10^6 cells infected with either the wild type or site directed mutant clones of HIV-HXB2 at a multiplicity of approximately 0.0001 infectious units of virus per cell in a total volume of between 200-500 μl. The cells were incubated with virus for one hour at 37° C. then washed in 0.01 M phosphate buffered saline, pH 7.2, and resuspensed in culture medium for incubation in culture with serial dilutions of test compound. The culture medium used was RPMI 1640 without phenol red, supplemented with penicillin, streptomycin, L-glutamine and 10% fetal calf serum (GM10).
Test compounds were prepared as 2 mM solutions in dimethyl sulphoxide (DMSO). Four replicate, serial 2-fold dilutions in GM10 were then prepared and 50 microliter amounts placed in 96-well plates over a final concentration range of […]. Fifty microliters GM10 and 3.75×10^4 infected cells were then added to each well. Control cultures containing no cells (blank), uninfected cells (100% viability; 4 replicates) and infected cells without compound (total virus-mediated cell death; 4 replicates) were also prepared. The cultures were then incubated at 37° C. in a humidified atmosphere of 5% CO2 in air for 5 days.
A fresh solution of 5 mg/mL MTT was prepared in 0.01 M phosphate buffered saline, pH 7.2 and 20 μL added to each culture. The cultures were further incubated as before for 2 hours. They were then mixed by pipetting up and down, and 170 microliters of Triton X-100 in acidified isopropanol (10% v/v Triton X-100 in 1:250 mixture of concentrated HCl in isopropanol) were added and the cultures were mixed again by pipetting up and down. When the formazan deposit was fully solubilized by further mixing, the absorbance (OD) of the cultures was measured at 540 nm and 690 nm wavelength (690 nm readings were used as blanks for artefacts between wells). The percent protection for each treated culture was then calculated from the equation:
OD drug-treated cultures)−(OD untreated virus control cultures) % Protection=100%
(OD uninfected cultures)−(OD untreated virus control cultures)
The IC50 was then obtained from graph plots of percentage protection versus log10 drug concentration.

In a further series the target is HIV-1 protease (Human immunodeficiency virus type 1 group M subtype B, UniProt P04585). Briefly: HIV protease inhibition assay (quenched fluorogenic substrate, fluorescence energy transfer).

Description for HIV-1 protease: HIV protease inhibitory activity was assessed using an adaptation of the method of Matayoshi. et al. [Matayoshi E. D. et al (1990).
Crude HIV-1 protease was prepared from E. coli pPTΔN. Cultures were grown at 30° in M9 medium supplemented with 0.2% casamino acids, 100 μg/ml ampicillin and 25 μg/ml thiamine until OD600=0.5-0.6, and the temperature was raised to 42° to induce expression of the protease. After 1.5 hours, the cells were harvested and the pellets stored at −70° until required.
The protease was prepared by lysis of the cells in a French pressure cell followed by precipitation of the enzyme with ammonium sulfate at 30% saturation.
The assay buffer comprised 0.1M sodium acetate pH 4.7, 8 mM EDTA, 0.2 M NaCl.
Tubes were incubated for 2 hours at 37° and the reaction was terminated by the addition of 500 μl of a 2:1 mixture of DMSO:50 mM Tricine pH 8.5. Fluorescence was measured in a fluorescence spectrophotometer, excitation λ=340 nm, emission λ=492 nm.

On to `CC(C)(C)NC(=O)[C@@H]1C[C@@H]2CCCC[C@@H]2CN1C[C@@H](O)[C@H](Cc1ccccc1)NC(=O)[C@@H](NC(=O)COc1cccc(F)c1)C(C)(C)S(C)(=O)=O`, for which the melting point is 197 to 199 °C. Same read-out and setting: for `CC(C)(C)NC(=O)[C@@H]1C[C@@H]2CCCC[C@@H]2CN1C[C@@H](O)[C@H](Cc1ccccc1)NC(=O)[C@@H](n1cc[nH]c1=O)C(C)(C)S(C)(=O)=O` the value was 228 to 230 °C.

Take `Cc1csc(N[C@H](C(=O)N[C@@H](Cc2ccccc2)[C@H](O)CN2C[C@H]3CCCC[C@H]3C[C@H]2C(=O)NC(C)(C)C)C(C)(C)S(C)(=O)=O)n1` [Example 138, N-tert-Butyl-1,2,3,4,4a(S),5,6,7,8,8a(S)-decahydro-2-[2(R)-hydroxy-3(S)-[[3-(methanesulfonyl)-N-(4-methyl-2-thiazolyl)-L-valyl]amino]-4-phenylbutyl]-3(S)-isoquinolinecarboxamide]: the values for the half-maximal inhibitory concentration (IC50) in the series on HIV-HXB2 and against HIV-1 protease were 65 nM and 7.8 nM, respectively. The matching figures for `CN(Cc1cccnc1)C(=O)N[C@H](C(=O)N[C@@H](Cc1ccccc1)[C@H](O)CN1C[C@H]2CCCC[C@H]2C[C@H]1C(=O)NC(C)(C)C)C(C)(C)S(C)(=O)=O` [Example 170, N-tert-Butyl-1,2,3,4,4a(S),5,6,7,8,8a(S)-decahydro-2-[2(R)-hydroxy-3(S)-[[3-(methanesulfonyl)-N-[N-methyl-N-[(3-pyridyl)methyl]carbamoyl]-L-valyl]amino]-4-phenylbutyl]-3(S)-isoquinolinecarboxamide]: 13 nM and 1 nM. Consider `CC(C)(C)NC(=O)[C@@H]1C[C@@H]2CCCC[C@@H]2CN1C[C@@H](O)[C@H](Cc1ccccc1)NC(=O)[C@@H](NC(=O)CNc1ccccc1)C(C)(C)S(C)(=O)=O` [Example 93, N-tert-Butyl-1,2,3,4,4a(S),5,6,7,8,8a(S)-decahydro-2-[2(R)-hydroxy-3(S)-[3-(methanesulfonyl)-N-(N-phenylglycyl)-L-valyl]amino]-4-phenylbutyl-3(S)-isoquinolinecarboxamide], for which the IC50 came out at 8 nM with HIV-HXB2 and 0.5 nM against HIV-1 protease. The corresponding values for `CC(C)(C)NC(=O)[C@@H]1C[C@@H]2CCCC[C@@H]2CN1C[C@@H](O)[C@H](Cc1ccccc1)NC(=O)[C@@H](NC(=O)COc1ccccn1)C(C)(C)S(C)(=O)=O` [Example 152] are 17 nM and 1.2 nM. The corresponding values for `CC(C)(C)NC(=O)[C@@H]1C[C@@H]2CCCC[C@@H]2CN1C[C@@H](O)[C@H](Cc1ccccc1)NC(=O)[C@@H](NC(=O)NCc1ccccc1)C(C)(C)S(C)(=O)=O` [Example 168, 2-[3(S)-[[N-(Benzylcarbamoyl)-3-(methanesulfonyl)-L-valyl]amino]-2(R)-hydroxy-4-phenylbutyl]-N-tert-butyl-1,2,3,4,4a(S),5,6,7,8,8a(S)-decahydro-3(S)-isoquinolinecarboxamide] are 16 nM and 0.5 nM. On to `CC(C)(C)NC(=O)[C@@H]1C[C@@H]2CCCC[C@@H]2CN1C[C@@H](O)[C@H](Cc1ccccc1)NC(=O)[C@@H](NS(C)(=O)=O)C(C)(C)S(C)(=O)=O`, for which the melting point was in the range of 135 to 160 °C. For the compound `CC(C)(C)NC(=O)[C@@H]1C[C@@H]2CCCC[C@@H]2CN1C[C@@H](O)[C@H](Cc1ccccc1)NC(=O)[C@@H](NCc1ccccc1)C(C)(C)S(C)(=O)=O` [Example 112, 2-[3(S)-[[N-Benzyl-3-(methanesulfonyl)-L-valyl]amino]-2(R)-hydroxy-4-phenylbutyl]-N-tert-butyl-1,2,3,4,4a(S),5,6,7,8,8a(S)-decahydro-3(S)-isoquinolinecarboxamide], the IC50 in the series with HIV-HXB2 is 94 nM; on HIV-1 protease, 7.5 nM. The matching figures for `CC(C)(C)NC(=O)[C@@H]1C[C@@H]2CCCC[C@@H]2CN1C[C@@H](O)[C@H](Cc1ccccc1)NC(=O)[C@@H](NC(=O)c1cccnc1)C(C)(C)S(C)(=O)=O` [Example 7, N-tert-butyl-1,2,3,4,4a(S),5,6,7,8,8a(S)-decahydro-2-[2(R)-hydroxy-3(S)-[[3-(methanesulfonyl)-N-[(3-pyridyl)carbonyl]-L-valyl]amino]-4-phenylbutyl]-3(S)-isoquinolinecarboxamide]: 21 nM and 2.3 nM. The corresponding values for `CC(C)(C)NC(=O)[C@@H]1C[C@@H]2CCCC[C@@H]2CN1C[C@@H](O)[C@H](Cc1ccccc1)NC(=O)[C@@H](NC(=O)c1cccc(F)c1)C(C)(C)S(C)(=O)=O` [Example 40, N-tert-Butyl-2-[3-(S)-[[N-(3-fluorobenzoyl)-3-(methanesulfonyl)-L-valyl]amino]-2(R)-hydroxy-4-phenylbutyl]-1,2,3,4,4a(S),5,6,7,8,8a(S)-decahydro-3(S)-isoquinolinecarboxamide] are 19 nM and 1.4 nM. The matching figures for `CC(C)(C)NC(=O)[C@@H]1C[C@@H]2CCCC[C@@H]2CN1C[C@@H](O)[C@H](Cc1ccccc1)NC(=O)[C@@H](NC(=O)COc1cccnn1)C(C)(C)S(C)(=O)=O` [Example 154]: 16 nM and 0.5 nM. For `CC(C)(C)NC(=O)[C@@H]1C[C@@H]2CCCC[C@@H]2CN1C[C@@H](O)[C@H](Cc1ccccc1)NC(=O)[C@@H](NC(=O)N1CCOCC1)C(C)(C)S(C)(=O)=O` [Example 106, N-tert-Butyl-1,2,3,4,4a(S),5,6,7,8,8a(S)-decahydro-2-[2(R)-hydroxy-3(S)-[[3-(methanesulfonyl)-N-(morpholinocarbonyl)-L-valyl]amino]-4 phenylbutyl]-3(S)-isoquinolinecarboxamide], the figures for the IC50 with HIV-HXB2 and against HIV-1 protease were 60 nM and 10.7 nM, respectively. The corresponding values for `CC(C)(C)NC(=O)[C@@H]1C[C@@H]2CCCC[C@@H]2CN1C[C@@H](O)[C@H](Cc1ccccc1)NC(=O)[C@@H](NC(=O)c1ccoc1)C(C)(C)S(C)(=O)=O` [Example 28, N-tert-Butyl-2-[3-(S)-[[N-(3-furoyl)-3-(methanesulfonyl)-L-valyl]amino]-2(R)-hydroxy-4-phenylbutyl]-1,2,3,4,4a(S),5,6,7,8,8a(S)-decahydro-3(S)-isoquinolinecarboxamide] are 21 nM and 1 nM.

With `CC(C)NCC(=O)N[C@H](C(=O)N[C@@H](Cc1ccccc1)[C@H](O)CN1C[C@H]2CCCC[C@H]2C[C@H]1C(=O)NC(C)(C)C)C(C)(C)S(C)(=O)=O` [Example 92, N-tert-Butyl-1,2,3,4,4a(S),5,6,7,8,8a(S)-decahydro-2-[2(R)-hydroxy-3(S)-[[N-[2-(isopropylamino)acetyl]-3-(methanesulfonyl)-L-valyl]amino]-4-phenylbutyl]-3(S)-isoquinolinecarboxamide], the values for the IC50 in the series on HIV-HXB2 and at HIV-1 protease were 33 nM and 4 nM, respectively. The matching figures for `CC(C)(C)NC(=O)[C@@H]1C[C@@H]2CCCC[C@@H]2CN1C[C@@H](O)[C@H](Cc1ccccc1)NC(=O)[C@@H](NC(=O)c1ccc(Cl)nc1)C(C)(C)S(C)(=O)=O` [Example 16, N-tert-Butyl-2-[3-(S)-[[N-[(6-chloro-3-pyridyl)carbonyl]-3-(methanesulfonyl)-L-valyl]amino]-2(R)-hydroxy-4-phenylbutyl]-1,2,3,4,4a(S),5,6,7,8,8a(S)-decahydro-3(S)-isoquinolinecarboxamide]: 12 nM and 1 nM.

For the compound `CC(C)(C)NC(=O)[C@@H]1C[C@@H]2CCCC[C@@H]2CN1C[C@@H](O)[C@H](Cc1ccccc1)NC(=O)[C@@H](NC(=O)COc1cccnc1)C(C)(C)S(C)(=O)=O` [Example 3, N-tert-butyl-1,2,3,4,4a(S),5,6,7,8a(S)-decahydro-2-[2(R)-hydroxy-3(S)-[[3-(methanesulfonyl)-N-[2-(3-pyridyloxy)acetyl]-L-valyl]amino]-4-phenylbutyl]-3(S)-isoquinolinecarboxamide], the IC50 in the series on HIV-HXB2 was determined as 17 nM; on HIV-1 protease, 0.6 nM. `CC(C)(C)NC(=O)[C@@H]1C[C@@H]2CCCC[C@@H]2CN1C[C@@H](O)[C@H](Cc1ccccc1)NC(=O)[C@@H](Nc1nc(CO)cs1)C(C)(C)S(C)(=O)=O` yielded a melting point of 126 °C.

Usually melting point stands for the temperature of the solid-liquid transition. By IC50 is commonly meant the midpoint of a concentration-inhibition curve. A low value points to inhibition by little substance.
